Data: patent publication US8012466B2, “Immunogenic compositions for activating γδ T cells” (priority 2008, dated 2011)
Entries after “also recorded” stand apart in the source; their conditions may differ.

Assays:
[1] = system: Vγ9/Vδ2; details: cited from earlier work
[2] = system: Vγ2Vδ2 T cells; assay: In vitro HMBPP response of rhesus monkey PBMC; type: cell-based; details: PBMC stimulated with 100 nM HMBPP
Description: FIG. 7. Characteristics of rhesus monkey Vγ2Vδ2 T cells. (A). Large in vitro HMBPP responses by Vγ2Vδ2 T cells from most rhesus monkeys. […] (B). Uniform memory subset distribution of rhesus monkey Vγ2Vδ2 T cells. PBMC from 22 monkeys were stained for Vδ2, […], and […]. Vδ2^+ cells were divided in 4 groups based on their expression of CD28 and CD27.
Memory subset distribution and HMBPP response of rhesus monkey Vγ2Vδ2 T cells—In preparation for in vivo immunization of rhesus monkey, we screened 33 monkeys for their ability to respond to HMBPP in vitro, γδ T cells levels, V gene expression, and memory subset distribution. […] Like human Vγ2Vδ2 T cells, monkey Vγ2Vδ2 T cells also could be divided into 4 subsets based on expression of CD28 and CD27 (TEarly=central memory=CD28^+27^+, TEarly CD27−=CD28^+27^−, TIntermediate=CD28^−27^+, and TLate CD45RA+=CD28^−27^−). However, unlike human donors, there were very few monkeys with a predominance of the TLate RA subset. Moreover, whereas Vγ2Vδ2 T cells constituted 73% of human adult γδ T cells, Vγ2Vδ2 T cells constituted only 29% of monkey γδ T cells consistent with our earlier study. […]

[3] = system: Vγ2Vδ2 T cells; assay: Immunization of rhesus monkeys with zoledronate and HMBPP plus sc IL-2; type: in vivo, rhesus monkey; details: for in vitro reactivity of PBMC to HMBPP after immunization: PBMC before and ~2 weeks after each immunization, cultured with HMBPP 9 days; for outcome of repeated immunization in vivo: zoledronate 0.06 mg/kg sc or iv twice, then HMBPP 70 mg/kg iv, sc IL-2
[4] = system: Vγ2Vδ2 TCR transfectant, DBS43; assay: IL-2 release by Vγ2Vδ2 TCR transfectant DBS43; type: cell-based; details: unpublished data

CC(O)(CBr)CCOP(=O)(O)OP(=O)(O)O (centres unmarked) [BrHPP, bromohydrin pyrophosphate]
return of expansion to baseline ([1]; cynomolgus monkey, in vivo): 10 to 15 days | expansion of Vγ9/Vδ2 ([1]; first and successive infusions): transiently expand; also recorded: less vigorous expansions

C/C(=C\COP(=O)(O)OP(=O)(O)O)CO [HMBPP, (E)-4-hydroxy-3-methyl-but-2-enyl pyrophosphate]
monkeys with expansion to >40% [2]: 32/33 | in vitro reactivity of PBMC to HMBPP after immunization [3]: leads to loss of in vitro reactivity to HMBPP | outcome of repeated immunization in vivo [3]: leads to immune exhaustion | IL-2 release [4]: release IL-2 in response to HMBPP

O=P(O)(O)C(O)(Cn1ccnc1)P(=O)(O)O [zoledronate]
in vitro reactivity of PBMC to HMBPP after immunization [3]: leads to loss of in vitro reactivity to HMBPP | outcome of repeated immunization in vivo [3]: loss of in vivo (FIG. 8) and in vitro proliferation by Vγ2Vδ2 T cells to antigenic stimulation; also recorded: leads to immune exhaustion
